# Results reported in patent publication US9376418B2, “Substituted pyridine spleen tyrosine kinase (SYK) inhibitors” (Merck Sharp & Dohme Corp., priority 2012, dated 2016).
# Molecular target: T1, recombinant human GST-SYK (Homo sapiens, UniProt P43405)
# T1 construct: purchased Carna Biosciences 08-176
# Experiment: Homogeneous Time-Resolved Fluorescence (HTRF) assay for the recombinant human Syk enzyme
# Type: biochemical
# Settings: HTRF assay, recombinant human GST-SYK; IC50 given as class symbols; read-out: rhSYK Activity
# Procedure: Homogeneous Time-Resolved Fluorescence (HTRF) Assay for the Recombinant Human Syk Enzyme
# A recombinant GST-hSYK fusion protein was used to measure potency of compounds to inhibit human Syk activity. The recombinant human GST-SYK (Carna Biosciences #08-176) ([…]) was incubated with various concentrations of the inhibitor diluted in DMSO (0.1% final concentration) for 10 minutes at room temperature in 15 mM Tris-HCl (pH 7.5), 0.01% tween 20, 2 mM DTT in 384 well plate format. To initiate the reaction the biotinylated substrate peptide (250 nM final concentration) that contains the phosphorylation site for Syk was added with magnesium (5 mM final concentration) and ATP (25 μM final concentration). Final volume of the reaction was 10 μL. Phosphorylation of the peptide was allowed to proceed for 45′ at room temperature. To quench the reaction and detect the phosphorylated product, 2 nM of a Europium-anti-phosphotyrosine antibody (Perkin Elmer #AD0161) and 70 nM SA-APC (Perkin-Elmer #CR130-100) were added together in 15 mM Tris pH 7.5, 40 mM EDTA, 0.01% tween 20. Final volume of the quenching solution was 10 μL. The resulting HTRF signal was measured after 30 minutes on an EnVision (Perkin-Elmer) reader using a time-resolved fluorescence protocol.
row,IC50,SMILES
1,< 100 nM,"Cc1cc(Nc2nccc(C(F)(F)F)n2)cc(-c2ccc(N3CCCC3C(N)=O)nc2)c1 (racemic) [Example 7.38, 1-[5-(3-methyl-5-{[4-(trifluoromethyl)pyrimidin-2-yl]amino}phenyl)pyridin-2-yl]prolinamide]"
2,< 100 nM,"Cc1cc(Nc2nccc(C(F)(F)F)n2)cc(-c2ccc(N3CCCC3C(=O)O)nc2)c1 (racemic) [Example 7.119, 1-[5-(3-methyl-5-{[4-(trifluoromethyl)pyrimidin-2-yl]amino}phenyl)pyridin-2-yl]proline]"
3,100 to 1000 nM,"CNC(=O)C1CCCN1c1cc(-c2cc(C)cc(Nc3nccc(C(F)(F)F)n3)c2)ccn1 (racemic) [Example 15.81, N-methyl-1-[4-(3-methyl-5-{[4-(trifluoromethyl)pyrimidin-2-yl]amino}phenyl)pyridin-2-yl]prolinamide]"
4,< 100 nM,"Cc1cc(Nc2nccc(C(F)(F)F)n2)cc(-c2ccc(N3CCCC3C(=O)O)nc2)c1 (single isomer, unassigned) [Example 7.122, 1-[5-(3-methyl-5-{[4-(trifluoromethyl)pyrimidin-2-yl]amino}phenyl)pyridin-2-yl]proline]"
5,< 100 nM,"Cc1cc(Nc2nccc(C(F)(F)F)n2)cc(-c2ccc(C3(O)CCC(C(=O)O)C(C)(C)C3)nc2)c1 (single isomer, unassigned) [Example 9.8, (1S,4R or 1R,4S)-4-hydroxy-2,2-dimethyl-4-[5-(3-methyl-5-{[4-(trifluoromethyl)pyrimidin-2-yl]amino}phenyl)pyridin-2-yl]cyclohexanecarboxylic acid]"
6,100 to 1000 nM,"Cc1cc(Nc2nccc(C(F)(F)F)n2)cc(-c2ccc(C34CCC(C(=O)O3)C(C)(C)C4)nc2)c1 (single isomer, unassigned) [Example 9.9, (1R,4S or 1S,4R)-5,5-dimethyl-1-[5-(3-methyl-5-{[4-(trifluoromethyl)pyrimidin-2-yl]amino}phenyl)pyridin-2-yl]-2-oxabicyclo[2.2.2]octan-3-one]"
7,100 to 1000 nM,"Cc1cc(Nc2nccc(C(F)(F)F)n2)cc(-c2ccc(C34CCC(C(=O)O3)C(C)(C)C4)nc2)c1 (single isomer, unassigned) [Example 9.10, (1S,4R or 1R,4S) 5,5-dimethyl-1-[5-(3-methyl-5-{[4-(trifluoromethyl)pyrimidin-2-yl]amino}phenyl)pyridin-2-yl]-2-oxabicyclo[2.2.2]octan-3-one]"
8,< 100 nM,"CC1(C)CC(O)(c2ccc(-c3cc(F)cc(Nc4nccc(C(F)(F)F)n4)c3)cn2)CCC1C(=O)O (single isomer, unassigned) [Example 9.14, (1R,4S or 1S,4R)-4-[5-(3-fluoro-5-{[4-(trifluoromethyl)pyrimidin-2-yl]amino}phenyl)pyridin-2-yl]-4-hydroxy-2,2-dimethylcyclohexanecarboxylic acid]"
9,< 100 nM,"Cc1cc(Nc2nccc(C(F)(F)F)n2)cc(-c2ccc(C3(O)CCC(C(=O)O)C(C)(C)C3)nc2)c1 (single isomer, unassigned) [Example 9.16, (1R,4S or 1S,4R)-4-hydroxy-2,2-dimethyl-4-[5-(3-methyl-5-{[4-(trifluoromethyl)pyrimidin-2-yl]amino}phenyl)pyridin-2-yl]cyclohexanecarboxylic acid]"
10,< 100 nM,"Cc1cc(Nc2nccc(C(F)(F)F)n2)cc(-c2ccc(C(C)(O)[C@H]3CC[C@H](C(=O)O)CC3)nc2)c1 (single isomer, unassigned) [Example 9.30, trans-4-{(1R or 1S)-1-hydroxy-1-[5-(3-methyl-5-{[4-(trifluoromethyl)pyrimidin-2-yl]amino}phenyl)pyridin-2-yl]ethyl}cyclohexanecarboxylic acid]"

# More lines, now with the values behind:
row,SMILES,IC50
1,"CCCCOC(=O)[C@H]1CC[C@H](C(C)(O)c2ccc(-c3cc(C)cc(Nc4nccc(C5CC5)n4)c3)cn2)CC1 (relative stereo) [Example 9.48, butyl trans-4-[1-(5-{3-[(4-cyclopropylpyrimidin-2-yl)amino]-5-methylphenyl}pyridin-2-yl)-1-hydroxyethyl]cyclohexanecarboxylate]",100 to 1000 nM
2,"CCCCOC(=O)[C@H]1CC[C@H](C(C)(O)c2ccc(-c3cc(C)cc(Nc4nccc(OC)n4)c3)cn2)CC1 (relative stereo) [Example 9.49, butyl trans-4-[1-hydroxy-1-(5-{3-[(4-methoxypyrimidin-2-yl)amino]-5-methylphenyl}pyridin-2-yl)ethyl]cyclohexanecarboxylate]",< 100 nM
3,"CC1(C)CC(O)(c2ccc(-c3cc(F)cc(Nc4nccc(C(F)(F)F)n4)c3)cn2)CCC1C(=O)O (single isomer, unassigned) [Example 9.4, (1S,4R or 1R,4S)-4-[5-(3-fluoro-5-{[4-(trifluoromethyl)pyrimidin-2-yl]amino}phenyl)pyridin-2-yl]-4-hydroxy-2,2-dimethylcyclohexanecarboxylic acid]",< 100 nM
4,"CC1(C)CC(O)(c2ccc(-c3cc(Nc4nccc(C(F)(F)F)n4)cc(C(F)F)c3)cn2)CCC1C(=O)O (single isomer, unassigned) [Example 9.13, (1S,4R or 1R,4S)-4-{5-[3-(difluoromethyl)-5-{[4-(trifluoromethyl)pyrimidin-2-yl]amino}phenyl]pyridin-2-yl}-4-hydroxy-2,2-dimethylcyclohexanecarboxylic acid]",< 100 nM
5,"COc1ccnc(Nc2cc(C)cc(-c3ccc(C(C)(O)[C@H]4CC[C@H](C(=O)O)CC4)nc3)c2)n1 (single isomer, unassigned) [Example 9.17, trans-4-[(1R or 1S)-1-hydroxy-1-(5-{3-[(4-methoxypyrimidin-2-yl)amino]-5-methylphenyl}pyridin-2-yl)ethyl]cyclohexanecarboxylic acid]",< 100 nM
6,"Cc1cc(Nc2nccc(C3CC3)n2)cc(-c2ccc(C(C)(O)[C@H]3CC[C@H](C(=O)O)CC3)nc2)c1 (single isomer, unassigned) [Example 9.18, trans-4-[(1R or 1S)-1-(5-{3-[(4-cyclopropylpyrimidin-2-yl)amino]-5-methylphenyl}pyridin-2-yl)-1-hydroxyethyl]cyclohexanecarboxylic acid]",< 100 nM
7,"Cc1cc(Nc2nccc(C3CC3)n2)cc(-c2ccc(C(C)(O)[C@H]3CC[C@H](C(=O)O)CC3)nc2)c1 (single isomer, unassigned) [Example 9.19, trans-4-[(1R or 1S)-1-(5-{3-[(4-cyclopropylpyrimidin-2-yl)amino]-5-methylphenyl}pyridin-2-yl)-1-hydroxyethyl]cyclohexanecarboxylic acid]",< 100 nM
8,"Cc1cc(Nc2nccc(C)n2)cc(-c2ccc(C(C)(O)[C@H]3CC[C@H](C(=O)O)CC3)nc2)c1 (single isomer, unassigned) [Example 9.26, trans-4-[(1R or 1S)-1-hydroxy-1-(5-{3-methyl-5-[(4-methylpyrimidin-2-yl)amino]phenyl}pyridin-2-yl)ethyl]cyclohexanecarboxylic acid]",< 100 nM
9,"Cc1cc(Nc2nccc(C)n2)cc(-c2ccc(C(C)(O)[C@H]3CC[C@H](C(=O)O)CC3)nc2)c1 (single isomer, unassigned) [Example 9.27, cis-4-[(1S or 1R)-1-hydroxy-1-(5-{3-methyl-5-[(4-methylpyrimidin-2-yl)amino]phenyl}pyridin-2-yl)ethyl]cyclohexanecarboxylic acid]",< 100 nM
10,"COc1ccnc(Nc2cc(C)cc(-c3ccc(C(C)(O)[C@H]4CC[C@H](C(=O)O)CC4)nc3)c2)n1 (single isomer, unassigned) [Example 9.28, trans-4-[(1R or 1S)-1-hydroxy-1-(5-{3-[(4-methoxypyrimidin-2-yl)amino]-5-methylphenyl}pyridin-2-yl)ethyl]cyclohexanecarboxylic acid]",< 100 nM
11,"Cc1cc(Nc2nccc(C(F)F)n2)cc(-c2ccc(C(C)(O)C3CCC(C(=O)O)CC3)nc2)c1 (single isomer, unassigned) [Example 9.29, trans-4-{(1R or 1S)-1-[5-(3-{[4-(difluoromethyl)pyrimidin-2-yl]amino}-5-methylphenyl)pyridin-2-yl]-1-hydroxyethyl}cyclohexanecarboxylic acid]",< 100 nM
12,"Cc1cc(Nc2nccc(C(F)F)n2)cc(-c2ccc(C(C)(O)C3CCC(C(=O)O)CC3)nc2)c1 (single isomer, unassigned) [Example 9.31, trans-4-{(1R or 1S)-1-[5-(3-{[4-(difluoromethyl)pyrimidin-2-yl]amino}-5-methylphenyl)pyridin-2-yl]-1-hydroxyethyl}cyclohexanecarboxylic acid]",< 100 nM
13,"CCCCOC(=O)C1CCC(C(C)(O)c2ccc(-c3cc(C)cc(Nc4nccc(OC)n4)c3)cn2)CC1 (single isomer, unassigned) [Example 9.50, butyl trans-4-[(1R or 1S)-1-hydroxy-1-(5-{3-[(4-methoxypyrimidin-2-yl)amino]-5-methylphenyl}pyridin-2-yl)ethyl]cyclohexanecarboxylate]",100 to 1000 nM
14,"CCCCOC(=O)C1CCC(C(C)(O)c2ccc(-c3cc(C)cc(Nc4nccc(C(F)F)n4)c3)cn2)CC1 (single isomer, unassigned) [Example 9.51, butyl trans-4-{(1R or 1S)-1-[5-(3-{[4-(difluoromethyl)pyrimidin-2-yl]amino}-5-methylphenyl)pyridin-2-yl]-1-hydroxyethyl}cyclohexanecarboxylate]",100 to 1000 nM
